Consider 1 compound from paper PMC11671526, “β-caryophyllene sensitizes hepatocellular carcinoma cells to chemotherapeutics and inhibits cell malignancy through targeting MAPK signaling pathway” (Frontiers in Pharmacology, 2024).

pIC50: −log10 of the molar value.

As a reminder, the pIC50 is the IC50 on a negative log10 scale, so that one unit is a factor of ten.

For assay [1], the system named is SMMC-7721 cells. In words: Transwell migration assay. It counts as cell-based, human. As to conditions: 48 h, vs ethanol control. How it is done: The transwell migration and invasion experiments were conducted using a 24-well plate (cat# 3422, Corning). HepG2 and SMMC-7721 cells (5 × 10^4) were suspended in 100 µL of medium supplied with ethanol, 150 and 300 µM of BCP and added to the top chamber, while 600 µL of complete medium containing 10% FBS was added into the lower chamber. After 48 h of incubation at 37°C, the cells from the top chamber were carefully removed using a cotton swab, while the cells penetrated through the membrane were fixed using 600 µL of 70% methanol for 15 min. To stain the cells, 600 µL of 0.2% crystal violet was used to treat the Transwell inserts for 10 min, followed by washing and drying, and the membranes of the inserts were photographed using an inverted microscope (Leica DM13000 B). The positive staining area was calculated using ImageJ software.

The subject of assay [2] is HepG2 cells. Put plainly: RT-qPCR of MAPK signaling pathway genes. It counts as cell-based, human. As to conditions: BCP-treated HepG2 cells vs control cells. How it is done: HepG2 cells were treated by 150 µM BCP or ethanol for 24 h, followed by total RNA extraction using the TRIzol reagent (Thermo Fisher Scientific, cat#15596026). The quality and concentration of RNA were examined by MOPS RNA electrophoresis and Eppendorf BioSpectrometer. The transcriptome analysis was performed by BGI-Wuhan China. The RNA-seq dataset of this study is accessible in the Gene Expression Omnibus (GEO) with an access number of GSE276099. The sequence library for each sample was prepared using the BGISEQ-500 platform with a 50-bp single-end (SE50) format. HISAT (v2.2.1) was used to align the clean reads to the reference genome and alignment of the clean reads to the reference genes was carried out using Bowtie2 (v2.4.5) ([Langmead and Salzberg, 2012]; [Kim et al., 2015]). Gene expression levels were calculated by RSEM (v1.3.1) ([Li and Dewey, 2011]). Analysis of differential gene expression was performed using edgeR in the Bioconductor software package ([Robinson et al., 2010]). Using a standard protocol, the RNA samples were also examined by reverse transcription and quantitative polymerase chain reaction (RT-qPCR). In brief, for reverse transcription, total RNA (1 μg) and gDNA wiper Mix were incubated at 42°C for 2 min. The samples were immediately incubated with a master mix containing 10 pmol/μL of poly (dT) primers at 37°C for 15 min and 85°C for 5 s. […]
Background: Real-time PCR tracks product formation cycle by cycle.

Assay [3] has as its system HepG2 cells. Put plainly: CCK8 viability of cells infected by pSL4-Flag vector or pSL4-Flag-PGF lentivirus. It counts as cell-based. As to conditions: Homo sapiens, HepG2, 48 h. How it is done: (§1) Cell viability assay using the CCK8 reagent (Bimake, Shanghai, China) was conducted according to the manufacturer’s instructions. The cell proliferation data were used to calculate the cell viability. Briefly, HepG2, SMMC-7721, and HL-7702 cells with a density of 5 × 10^3 cells/well were seeded into each well of 96-well plates and incubated overnight. […] After 48 h, 10 µL of CCK8 reagent was added to each well, followed by 2 h incubation at 37°C and measurement of absorbance at 450 nm using a microplate reader (Molecular Devices, LLC.). The cell viability percentage of all compounds or their combinations at certain concentrations during the treatment period was evaluated by normalizing absorbance at 450 nm to that of vehicle controls. The half maximal inhibitory concentrations (IC50) values were calculated using the GraphPad Prism 8 software.
(§2) The placental growth factor (PGF) coding sequence was amplified using gene specific primers and then subcloned into a lentiviral vector pSL4-Flag expressing the puromycin resistance gene to generate pSL4-Flag-PGF vector with a CMV promoter driving PGF expression. The primers used to amplify the PGF coding sequence, check the amplified DNA fragment and verify its ectopic expression are listed in Supplementary Table S1. Lentiviruses carrying pSL4-Flag-PGF and an empty pSL4-Flag vector were produced and used to infect HCC cells based on our previously reported procedure ([Wan et al., 2012]). Ectopic PGF expression was achieved by infecting HCC cells with pSL4-Flag-PGF lentivirus, and the control cells were produced by infecting HCC cells using lentivirus carrying the empty pSL4-Flag-vector.

The test system of assay [4] is SMMC-7721 cells. Described as above. It counts as cell-based. As to conditions: Homo sapiens. How it is done:
as §1, §2

Consider `C=C1CC/C=C(\C)CC[C@@H]2[C@@H]1CC2(C)C` [BCP, β-caryophyllene], for which the “reduction of cell migration” value is on record as 18.06% with SMMC-7721 cells [1] (SMMC-7721, 150 µM) and 52.19% in the assay with SMMC-7721 cells [1] (SMMC-7721, 300 µM). For the same compound, the “RT-qPCR verification of differential expression of NR4A1, CSF1R, PGF, ARTN, CACNA1E” value in the assay on HepG2 cells [2] is on record as “confirmed”. Further, the negative-log IC50 (pIC50) is 3.75 in the assay on HepG2 cells [3] (HepG2 cells carrying empty vector); 3.55 with HepG2 cells [3] (HepG2 cells expressing Flag-PGF); 3.50 with SMMC-7721 cells [4] (SMMC-7721, SMMC-7721 cells carrying empty vector); 3.39 in the assay on SMMC-7721 cells [4] (SMMC-7721, SMMC-7721 cells expressing Flag-PGF).
